Test results from US11046699B2, “Pyrazolo-pyrimidin-amino-cycloalkyl compounds and their therapeutic uses” (RAPT THERAPEUTICS, INC., priority 2018, dated 2021).
pIC50: −log10 of the molar value. Like-named read-outs stand apart in the source and are kept apart here.

Target: GCN2 (Homo sapiens, UniProt Q9P2K8)
Assay: GCN2 enzymatic endpoint assay: phosphorylation of GFP-eIF2α measured by TR-FRET (Lanthascreen)
Type: biochemical
In short: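 Phosphorylated eIF2α read by Lanthascreen TR-FRET (acceptor 520 nm over donor 495 nm) after EDTA stop. The reaction ran 90 min at room temperature on 80 nM GFP-eIF2α with 2 μM ATP.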

[1] = tested as described in Example 77, compound and/or hydrochloride, dihydrochloride or trifluoroacetic acid salt, read-out: IC 50 Activity
[2] = GCN2 biochemical IC50, 4 nM GCN2, 2 μM ATP, 80 nM GFP-eIF2α, 90 min RT, read-out: GCN2 activity

GCN2, sequence (Q9P2K8 whole entry): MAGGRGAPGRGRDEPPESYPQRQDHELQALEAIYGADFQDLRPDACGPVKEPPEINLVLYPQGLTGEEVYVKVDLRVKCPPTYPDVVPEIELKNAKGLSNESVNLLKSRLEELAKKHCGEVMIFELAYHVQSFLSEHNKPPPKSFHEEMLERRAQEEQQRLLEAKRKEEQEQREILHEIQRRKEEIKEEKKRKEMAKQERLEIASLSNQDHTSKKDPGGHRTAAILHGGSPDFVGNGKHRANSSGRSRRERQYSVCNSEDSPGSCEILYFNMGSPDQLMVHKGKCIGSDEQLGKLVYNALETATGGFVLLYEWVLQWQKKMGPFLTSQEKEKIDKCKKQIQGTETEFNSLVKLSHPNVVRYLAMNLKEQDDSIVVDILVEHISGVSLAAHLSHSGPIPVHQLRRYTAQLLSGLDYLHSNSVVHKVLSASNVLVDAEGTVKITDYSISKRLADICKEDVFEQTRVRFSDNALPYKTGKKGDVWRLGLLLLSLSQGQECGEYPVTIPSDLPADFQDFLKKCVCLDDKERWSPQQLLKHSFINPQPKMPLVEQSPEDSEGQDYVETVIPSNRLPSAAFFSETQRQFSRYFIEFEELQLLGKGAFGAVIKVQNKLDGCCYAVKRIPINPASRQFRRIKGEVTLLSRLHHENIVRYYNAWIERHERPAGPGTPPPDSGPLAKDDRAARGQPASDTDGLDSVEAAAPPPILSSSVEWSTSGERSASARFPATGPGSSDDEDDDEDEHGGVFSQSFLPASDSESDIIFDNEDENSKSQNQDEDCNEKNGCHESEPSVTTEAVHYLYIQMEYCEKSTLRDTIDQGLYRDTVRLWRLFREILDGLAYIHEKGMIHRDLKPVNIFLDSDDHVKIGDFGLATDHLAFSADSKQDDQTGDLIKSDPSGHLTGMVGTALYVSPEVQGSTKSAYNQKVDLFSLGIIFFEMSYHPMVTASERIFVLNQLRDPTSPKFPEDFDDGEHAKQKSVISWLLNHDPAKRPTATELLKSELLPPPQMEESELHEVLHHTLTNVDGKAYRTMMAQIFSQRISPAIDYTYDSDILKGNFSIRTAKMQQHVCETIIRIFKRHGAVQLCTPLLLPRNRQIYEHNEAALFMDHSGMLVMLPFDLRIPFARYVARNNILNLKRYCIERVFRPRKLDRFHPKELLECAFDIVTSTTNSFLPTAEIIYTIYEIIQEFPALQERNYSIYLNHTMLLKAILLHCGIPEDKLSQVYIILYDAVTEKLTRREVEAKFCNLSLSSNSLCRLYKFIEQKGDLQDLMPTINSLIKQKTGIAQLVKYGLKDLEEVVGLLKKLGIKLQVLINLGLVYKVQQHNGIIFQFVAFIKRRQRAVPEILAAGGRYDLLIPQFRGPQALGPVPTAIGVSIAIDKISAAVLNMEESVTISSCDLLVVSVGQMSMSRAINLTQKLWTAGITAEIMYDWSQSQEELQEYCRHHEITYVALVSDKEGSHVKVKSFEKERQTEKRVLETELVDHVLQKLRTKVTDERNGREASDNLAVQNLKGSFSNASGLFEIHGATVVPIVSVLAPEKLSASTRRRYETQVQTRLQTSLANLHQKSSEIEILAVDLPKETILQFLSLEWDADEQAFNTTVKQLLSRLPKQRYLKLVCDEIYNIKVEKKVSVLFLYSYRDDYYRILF

Row | pIC50 [1] | pIC50 [2] | Structure (SMILES)
1 | 6.70 to 7.60 |  | CNC(=O)[C@]1(C)CC[C@@H](Nc2ncc3c(Br)nn(-c4ccc5c(c4)CN(S(C)(=O)=O)CC5)c3n2)C1 [(1R,3R)-3-[[3-bromo-1-(2-methylsulfonyl-3,4-dihydro-1H-isoquinolin-7-yl)pyrazolo [3,4-d]pyrimidin-6-yl]amino]-N,1-dimethyl-cyclopentanecarboxamide]
2 | 6.70 to 7.60 |  | CC1(C(=O)NC2CCOCC2)CC(Nc2ncc3c(Br)nn(-c4ccc5ncccc5c4)c3n2)C1 (stereo not drawn)
3 | 6.70 to 7.60 |  | CNC(=O)[C@]1(C)CC[C@@H](Nc2ncc3c(Br)nn(-c4ccc(-c5nnc(C)o5)c(CCO)c4)c3n2)C1 [(1R,3R)-3-[[3-bromo-1-[3-(2-hydroxyethyl)-4-(5-methyl-1,3,4-oxadiazol-2-yl)phenyl]pyrazolo[3,4-d]pyrimidin-6-yl]amino]-N,1-dimethyl-cyclopentanecarboxamide]
4 | 6.00 to 6.30 |  | CNC(=O)[C@@]1(C)CC[C@@H](Nc2ncc3c(Br)nn(-c4ccc5nccnc5c4)c3n2)C1 [(1S,3R)-3-((3-bromo-1-(quinoxalin-6-yl)-1H-pyrazolo[3,4-d]pyrimidin-6-yl)amino)-N,1-dimethylcyclopentane-1-carboxamide]
5 | 6.70 to 7.60 |  | CNC(=O)[C@]1(C)CC[C@@H](Nc2ncc3c(Br)nn(-c4cc(/C=C/P(C)(C)=O)c5ncccc5c4)c3n2)C1 [(1R,3R)-3-[[3-bromo-1-[8-[(E)-2-dimethylphosphorylvinyl]-6-quinolyl]pyrazolo[3,4-d]pyrimidin-6-yl]amino]-N,1-dimethyl-cyclopentanecarboxamide]
6 | 6.70 to 7.60 |  | CNC(=O)[C@]1(C)CC[C@@H](Nc2ncc3c(Br)nn(-c4cccc(NC(=O)c5cscn5)c4)c3n2)C1 [N-[3-[3-bromo-6-[[(1R,3R)-3-methyl-3-(methylcarbamoyl)cyclopentyl]amino]pyrazolo[3,4-d]pyrimidin-1-yl]phenyl] thiazole-4-carboxamide]
7 | 6.70 to 7.60 |  | CNC(=O)C1(C)CC[C@@H](Nc2ncc3c(Br)nn(-c4ccc(-c5cnccn5)cc4)c3n2)C1 (stereo partly drawn) [(3R)-3-[[3-bromo-1-(4-pyrazin-2-ylphenyl)pyrazolo[3,4-d]pyrimidin-6-yl]amino]-N,1-dimethyl-cyclopentanecarboxamide]
8 | 6.70 to 7.60 |  | N#Cc1cc(-n2nc(Br)c3cnc(N[C@@H]4CC[C@H](C(=O)NCC5(F)CNC5)C4)nc32)cc2cccnc12 [(1S,3R)-3-((3-bromo-1-(8-cyanoquinolin-6-yl)-1H-pyrazolo[3,4-d]pyrimidin-6-yl)amino)-N-((3-fluoroazetidin-3-yl)methyl)cyclo-pentane-1-carboxamide]
9 | 6.70 to 7.60 |  | CC#CC(=O)NCCc1cc(-n2nc(Br)c3cnc(N[C@@H]4CC[C@@](C)(C(=O)NC)C4)nc32)cc2cccnc12 [(1R,3R)-3-[[3-bromo-1-[8-[2-(but-2-ynoylamino)ethyl]-6-quinolyl]pyrazolo [3,4-d]pyrimidin-6-yl]amino]-N,1-dimethyl-cyclopentanecarboxamide]
10 | 6.70 to 7.60 |  | Cn1ccnc1[C@@H]1CC[C@@H](Nc2ncc3c(Br)nn(-c4ccc5ncccc5c4)c3n2)C1 (relative stereo) [3-bromo-N-(trans-3-(1-methyl-1H-imidazol-2-yl)cyclopentyl)-1-(quinolin-6-yl)-1H-pyrazolo[3,4-d]pyrimidin-6-amine]
11 | 6.70 to 7.60 |  | Cc1nnc(-c2ccc(-n3nc(Br)c4cnc(NC5CCOC5)nc43)cc2)s1 (stereo not drawn) [3-bromo-1-[4-(5-methyl-1,3,4-thiadiazol-2-yl)phenyl]-N-tetrahydrofuran-3-yl-pyrazolo [3,4-d]pyrimidin-6-amine]
12 | 6.70 to 7.60 |  | Cc1nnc(-c2ccc(-n3nc(Br)c4cnc(N[C@@H]5CCOC5)nc43)cc2)s1 [3-bromo-1-[4-(5-methyl-1,3,4-thiadiazol-2-yl)phenyl]-N-[(3R)-tetrahydrofuran-3-yl] pyrazolo[3,4-d]pyrimidin-6-amine]
13 | 6.70 to 7.60 |  | CP(C)(=O)[C@@H]1CC[C@@H](Nc2ncc3c(Br)nn(-c4cc(C#N)cc(OCC5(F)CNC5)c4)c3n2)C1 [3-[3-bromo-6-[[(1R,3R)-3-dimethylphosphorylcyclopentyl]amino]pyrazolo[3,4-d]pyrimidin-1-yl]-5-[(3-fluoroazetidin-3-yl)methoxy]benzonitrile]
14 | > 7.60 |  | CNC(=O)[C@]1(C)CC[C@@H](Nc2ncc3c(Br)nn(-c4cc(C#N)cc(OCC5CNC5)c4)c3n2)C1 [(1R,3R)-3-[[1-[3-(azetidin-3-ylmethoxy)-5-cyano-phenyl]-3-bromo-pyrazolo[3,4-d]pyrimidin-6-yl]amino]-N,1-dimethyl-cyclopentanecarboxamide]
15 | 6.70 to 7.60 |  | CNC(=O)[C@]1(C)CC[C@@H](Nc2ncc3c(Br)nn(-c4ccc5c(c4)C(=O)NC5=O)c3n2)C1 [(1R,3R)-3-[[3-bromo-1-(1,3-dioxo-isoindolin-5-yl)pyrazolo[3,4-d]pyrimidin-6-yl]amino]-N,1-dimethyl-cyclopentanecarboxamide]
16 | 6.70 to 7.60 |  | CNC(=O)[C@]1(C)CC[C@@H](Nc2ncc3c(Br)nn(-c4ccc5nc(N6CCN(C)CC6)ncc5c4)c3n2)C1 [(1R,3R)-3-[[3-bromo-1-[2-(4-methylpiperazin-1-yl)quinazolin-6-yl]pyrazolo[3,4-d]pyrimidin-6-yl]amino]-N,1-dimethyl-cyclo-pentanecarboxamide; 2,2,2-trifluoroacetic acid]
17 | 6.70 to 7.60 |  | CNC(=O)[C@]1(C)CC[C@@H](Nc2ncc3c(Br)nn(-c4ccc5nc(NC(C)=O)ncc5c4)c3n2)C1 [(1R,3R)-3-[[1-(2-acetamidoquinazolin-6-yl)-3-bromo-pyrazolo[3,4-d]pyrimidin-6-yl]amino]-N,1-dimethyl-cyclopentane-carboxamide; 2,2,2-trifluoroacetic acid]
18 | 6.70 to 7.60 |  | OC1CC(Nc2ncc3c(Br)nn(-c4cc(F)c5ncccc5c4)c3n2)C1 (stereo not drawn) [3-[[3-bromo-1-(8-fluoro-6-quinolyl)pyrazolo[3,4-d]pyrimidin-6-yl]amino] cyclobutanol]
19 | 6.70 to 7.60 |  | CNC(=O)[C@]1(C)CC[C@@H](Nc2ncc3c(Br)nn(-c4cc(C5CNC5)c5ncccc5c4)c3n2)C1 [(1R,3R)-3-[[1-[8-(azetidin-3-yl)-6-quinolyl]-3-bromo-pyrazolo[3,4-d]pyrimidin-6-yl]amino]-N,1-dimethyl-cyclopentane-carboxamide]
20 |  | 6.70 to 7.60 | CNC(=O)[C@]1(C)CC[C@@H](Nc2ncc3c(Br)nn(-c4cc(Cl)cc(CO)c4)c3n2)C1 [Example 46, (1R,3R)-3-((3-bromo-1-(3-chloro-5-(hydroxymethyl)phenyl)-1H-pyrazolo[3,4-d]pyrimidin-6-yl)amino)-N,1-dimethylcyclopentane-1-carboxamide; 2,2,2-trifluoroacetic acid]
21 | 6.70 to 7.60 |  | CNC(=O)[C@@H]1CC[C@@H](Nc2ncc3c(Br)nn(-c4ccc5nc(C)c(F)cc5c4)c3n2)C1 [(1R,3R)-3-((3-bromo-1-(3-fluoro-2-methyl-quinolin-6-yl)-1H-pyrazolo[3,4-d]pyrimidin-6-yl)amino)-N-methylcyclopentane-1-carboxamide]
22 |  | 6.70 to 7.60 | CNC(=O)[C@]1(C)CC[C@@H](Nc2ncc3c(Br)nn(-c4ccc5ncccc5c4)c3n2)C1 (single isomer, unassigned) [Example 18]
23 | 6.70 to 7.60 |  | O=C([C@@H]1CC[C@@H](Nc2ncc3c(Br)nn(-c4ccc5ncccc5c4)c3n2)C1)N1CC2CCC(C1)O2 [(8-oxa-3-azabicyclo[3.2.1]octan-3-yl)((1R,3R)-3-((3-bromo-1-(quinolin-6-yl)-1H-pyrazolo [3,4-d]pyrimidin-6-yl)amino)cyclopentyl) methanone]
24 | 6.70 to 7.60 |  | CNC(=O)[C@]1(C)CC[C@@H](Nc2ncc3c(Br)nn(-c4cc(C5(CN)CC5)c5ncccc5c4)c3n2)C1 [(1R,3R)-3-[[1-[8-[1-(aminomethyl)cyclo-propyl]-6-quinolyl]-3-bromo-pyrazolo [3,4-d]pyrimidin-6-yl]amino]-N,1-dimethyl-cyclopentanecarboxamide]
25 | 6.30 to 6.70 |  | COCCNC(=O)[C@@H]1CC[C@@H](Nc2ncc3c(Br)nn(-c4ccc(-c5ccn[nH]5)cc4)c3n2)C1 [(1R,3R)-3-((1-(4-(1H-pyrazol-5-yl)phenyl)-3-bromo-1H-pyrazolo[3,4-d]pyrimidin-6-yl)amino)-N-(2-methoxyethyl)cyclopentane-1-carboxamide]
26 | 6.70 to 7.60 |  | CNC(=O)[C@]1(C)CC[C@@H](Nc2ncc3c(Br)nn(-c4ccc5nc(N6CCOCC6)ncc5c4)c3n2)C1 [(1R,3R)-3-[[3-bromo-1-(2-morpholino-quinazolin-6-yl)pyrazolo[3,4-d]pyrimidin-6-yl]amino]-N,1-dimethyl-cyclopentane-carboxamide; 2,2,2-trifluoroacetic acid]
27 | 6.70 to 7.60 |  | CNC(=O)[C@]1(C)CC[C@@H](Nc2ncc3c(Br)nn(-c4cc(CN5CCNCCC5=O)c5ncccc5c4)c3n2)C1 [(1R,3R)-3-[[3-bromo-1-[8-[(7-oxo-1,4-diazepan-1-yl)methyl]-6-quinolyl]pyrazolo[3,4-d]pyrimidin-6-yl]amino]-N,1-dimethyl-cyclopentanecarboxamide]
28 | 6.70 to 7.60 |  | CNC(=O)[C@]1(C)CCC(Nc2ncc3c(Br)nn(-c4cnc(-c5nnc(C)s5)c(F)c4)c3n2)C1 (stereo partly drawn) [(1R)-3-[[3-bromo-1-[5-fluoro-6-(5-methyl-1,3,4-thiadiazol-2-yl)-3-pyridyl]pyrazolo [3,4-d]pyrimidin-6-yl]amino]-N,1-dimethyl-cyclopentanecarboxamide]
29 | 6.70 to 7.60 |  | CC(=O)N1CCC(Nc2ncc3c(Br)nn(-c4cc(F)c5ncccc5c4)c3n2)CC1 [1-[4-[[3-bromo-1-(8-fluoro-6-quinolyl)pyrazolo[3,4-d]pyrimidin-6-yl]amino]-1-piperidyl]ethanone]

Row | Structure (SMILES) | pIC50 [1] | pIC50 [2]
30 | CNC(=O)[C@]1(C)CC[C@@H](Nc2ncc3c(Br)nn(-c4ccc5nc(NC)ncc5c4)c3n2)C1 | 6.70 to 7.60 | 
31 | CNC(=O)[C@]1(CC(F)(F)F)CC[C@@H](Nc2ncc3c(Br)nn(-c4ccc(-c5nnc(C)s5)cc4)c3n2)C1 | 6.70 to 7.60 | 
32 | CNC(=O)CC1CC(Nc2ncc3c(Br)nn(-c4ccc(-c5nnc(C)s5)c(CCC#N)c4)c3n2)C1 (stereo not drawn) | 6.70 to 7.60 | 
33 | CC[C@@H](N)c1cc(Cl)cc(-n2nc(Br)c3cnc(N[C@@H]4CC[C@@](C)(C(=O)NC)C4)nc32)c1 | > 7.60 | 
